The data set can be described thus: solvent given as SMILES.

The structures appear in SMILES notation.

Take `Fc1ccc(-c2nc3n(c2-c2ccncc2)CCS3)cc1`: the emission maximum is listed as 397.5 nm (in C1CCCCC1); 414 nm (in C1CCOC1); 412 nm (in C1COCCO1); 420 nm (in CC#N); 420 nm (in CC(C)(C)O); 418 nm (in CC(C)=O). In addition, the emission maximum was 436 nm (in CC(C)O); 438 nm (in CCO); 414 nm (in CCOC(C)=O); 426 nm (in CN(C)C=O); 446 nm (in CNC=O); 439 nm (in CO). This compound also had an emission maximum (in CS(C)=O) of 436 nm; an emission maximum (in Cc1ccc(C)cc1) of 411.5 nm; an emission maximum (in Cc1ccccc1) of 412 nm; an emission maximum (in ClC(Cl)Cl) of 413.5 nm; an emission maximum (in ClCCl) of 415 nm; an emission maximum (in O) of 415 nm. In addition, the emission maximum came to 440.5 nm (in OCCO) and 434 nm (in c1ccncc1).

Consider `Cc1cc2sccc2c2[nH]c3ccccc3c12`, for which the emission maximum (in ClCCl) is 346 nm.

Under “in ClCCl”, `Cc1ccccc1N1c2c(sc3ccccc23)Sc2sc3ccccc3c21` came in with an emission maximum of 583 nm.

In turn, `COC(=O)c1[nH]c(-c2ccc(Br)cc2)c2nnc3ccc(OC)cc3c12` had an emission maximum (in ClCCl) of 475 nm.

With `CCOc1cc2c(cc1/C=C/C(=C(C#N)C#N)c1ccccc1)c1ccccc1n2CC`, the emission maximum reads like this: (in C1CCOC1) 541 nm; (in CC#N) 569 nm; (in CCO) 575 nm; (in CCOC(C)=O) 537 nm; (in CN(C)C=O) 573 nm; (in CS(C)=O) 575 nm. The emission maximum was determined as 522 nm (in Cc1ccccc1), 550 nm (in ClC(Cl)Cl) and 558 nm (in ClCCl).

On to `COc1ccc2c(c1)N(c1ccc(C)cc1)c1cc3c(cc1=N2)Oc1c(cc(C(C)(C)C)cc1C(C)(C)C)N=3`, for which the emission maximum by setting is: (in CC#N) 625 nm; (in CCCCCC) 586 nm; (in CO) 635 nm.

Compound `CCCCCCCCCCCCCCCCn1c(-c2cc(-c3nc4ccc(C)cc4n3CCCCCCCCCCCCCCCC)cc(-c3nc4ccc(C)cc4n3CCCCCCCCCCCCCCCC)c2)nc2ccc(C)cc21` came in with an emission maximum (in C1CCOC1) of 366.9 nm.

Regarding `COc1ccc(C2=CC(c3ccccc3)=C(c3ccccc3)C2)c2ccccc12`, the emission maximum (in ClCCl) is listed as 479 nm.

For the compound `COc1ccc(C2=CC3=C(c4c(C)cc(C)cc4C)c4cc(-c5ccc(OC)cc5)c(-c5ccc(OC)cc5)n4[B-](F)(F)[N+]3=C2c2ccc(OC)cc2)cc1`, the emission maximum runs as follows: (in C1CCCCC1) 666 nm; (in C1CCOC1) 674 nm; (in CC#N) 673 nm; (in Cc1ccccc1) 677 nm; (in ClCCl) 672 nm.

`N#Cc1ccc(-c2cn3cc(-c4ccccc4)c[n+]3[n-]2)cc1` gave an emission maximum (in ClCCl) of 506 nm.

Regarding `CN1c2ccccc2CCc2ccccc21`, the emission maximum (in CC#N) is 346 nm and the emission maximum (in CO) is 348 nm.

`c1ccc(-c2ccc(-c3ccc(-c4ccccc4)cc3)cc2)cc1` registered an emission maximum (in C1CCOC1) of 368 nm and an emission maximum (in C1COCCO1) of 369 nm.

With `C[Si](C)(C)c1ccc(-c2ccc(-c3ccc(-c4ccc(-c5ccc([Si](C)(C)C)s5)s4)c4nsnc34)s2)s1`, the emission maximum (in C1CCOC1) is listed as 656 nm.

Consider `c1ccc(Nc2nc(Nc3ccccc3)nc(Nc3ccc4cc5ccccc5cc4c3)n2)cc1`, for which the emission maximum by setting is: (in C1COCCO1) 442 nm; (in CC#N) 441 nm; (in CCCCOCCCC) 441 nm; (in CCOC(C)=O) 440 nm.

`Cc1ccc(/C=C/c2ccccc2-[n+]2noc([O-])c2-c2ccccc2)cc1`: the emission maximum by setting is: (in C1CCCCC1) 400 nm; (in CC#N) 506 nm.

Turning to `CN(C)c1ccc(-c2nc3c(c4c2-c2ccc(C#N)cc2CC4)-c2ccc(C#N)cc2CC3)cc1`, the emission maximum is given as 500 nm (in C1CCOC1); 505 nm (in CC#N); 444 nm (in CCCCCC); 489 nm (in CCOC(C)=O); 489 nm (in CO); 516 nm (in CS(C)=O). Moreover, the emission maximum runs as follows: (in Cc1ccccc1) 469 nm; (in ClCCl) 482 nm.

The compound `CCCCCCC1(CCCCCC)c2cc(-c3nc(-c4ccc5c(c4)C(CCCCCC)(CCCCCC)c4cc(N6c7ccccc7Oc7ccccc76)ccc4-5)nc(-c4ccc5c(c4)C(CCCCCC)(CCCCCC)c4cc(N6c7ccccc7Oc7ccccc76)ccc4-5)n3)ccc2-c2ccc(N3c4ccccc4Oc4ccccc43)cc21` yielded an emission maximum (in C1CCOC1) of 616 nm, an emission maximum (in CCCCCC) of 485 nm, an emission maximum (in Cc1ccccc1) of 525 nm and an emission maximum (in ClCCl) of 621 nm.

On to `COc1ccc(-c2nnc(-c3cc(-n4c5ccccc5c5ccccc54)c(-n4c5ccccc5c5ccccc54)cc3-c3nnc(-c4ccc(OC)cc4)o3)o2)cc1`, for which the emission maximum worked out at 515.81 nm (in CC#N), 459 nm (in Cc1ccccc1) and 487.92 nm (in ClCCl).

Where the note is “in ClCCl”, `Cc1cc2ccccc2c2[nH]c3ccccc3c12` yielded an emission maximum of 360 nm.

Compound `CCn1c(-c2ccc(-c3ccc4c(c3)C(C)(C)c3ccccc3-4)cc2)c(-c2ccc3ccccc3c2)c(-c2ccc3ccccc3c2)c1-c1ccc(-c2ccc3c(c2)C(C)(C)c2ccccc2-3)cc1` returned an emission maximum (in CCOC(C)=O) of 442 nm.

Compound `Cc1sc(Cl)cc1-c1nc(-c2ccccc2)[nH]c1-c1cc(Cl)sc1C` came in with an emission maximum (in CC#N) of 381 nm.

With `CC[n+]1c(-c2ccccc2)c2cc(-n3cccc3)ccc2c2ccc(-n3cccc3)cc21`, the emission maximum (in O) worked out at 502 nm.

Consider `CCCCCCCCCCCCC1(CCCCCCCCCCCC)c2cc(-c3ccc(C=C4C(=O)c5ccccc5C4=O)cc3)ccc2-c2ccc(-c3ccc(C=C4C(=O)c5ccccc5C4=O)cc3)cc21`, for which the emission maximum (in C1CCOC1) was 531 nm; the emission maximum (in CC(C)=O) is given as 566 nm; the emission maximum (in CCCCCC) is listed as 463 nm; the emission maximum (in CS(C)=O) came to 598 nm; the emission maximum (in Cc1ccccc1) worked out at 490 nm; the emission maximum (in ClC(Cl)Cl) turned out to be 529 nm.

In turn, `CCCC1(CCC)c2ccccc2-c2ccc(-c3ccc4c(c3)C(CCC)(CCC)c3cc(-c5ccc6c(c5)C(CCC)(CCC)c5ccccc5-6)ccc3-4)cc21` registered an emission maximum (in C1CCCCC1) of 396 nm.

`Cc1cc(C)c(C2=C3C=CC(c4ccc5c(ccc6ccccc65)c4)=[N+]3[B-](F)(F)n3c2ccc3-c2ccc3c(ccc4ccccc43)c2)c(C)c1` returned an emission maximum (in ClC(Cl)Cl) of 624 nm.

`C(/C=C/Nc1ccccc1)=[NH+]c1ccccc1` had an emission maximum (in CS(C)=O) of 492 nm.

Where the note is “in ClCCl”, `CC(C)(C)c1cc(-c2c3cc(c(-c4cc(C(C)(C)C)cc(C(C)(C)C)c4)c4ccc([nH]4)c(-c4ccc(Br)cc4)c4nc(c(-c5ccc(Br)cc5)c5ccc2[nH]5)C=C4)N=C3)cc(C(C)(C)C)c1` registered an emission maximum of 741 nm.

Consider `COc1ccc2nc(-c3ccccc3)c(=O)oc2c1`, for which the emission maximum (in c1ccccc1) is reported as 448 nm.

For the setting “in ClC(Cl)Cl”, `CN1CCCc2cc(C3=Cc4cccc[n+]4[B-](F)(F)O3)ccc21` came in with an emission maximum of 508 nm.

Turning to `CCCCCCCCCCn1nnc(-c2ccc(C#Cc3ccc(C#Cc4ccc(-c5nnn(CCCCCCCCCC)n5)cc4)c4nc5c6ccccc6c6ccccc6c5nc34)cc2)n1`, the emission maximum reads like this: (in C1CCOC1) 495 nm; (in Cc1ccccc1) 488 nm; (in ClCCl) 502 nm.

`CC(C)(C)c1ccc(-n2c(-c3ccc(N(c4ccc(-c5ccc(N(c6ccc(-c7nc8c9ccccc9c9ccccc9c8n7-c7ccc(C(C)(C)C)cc7)cc6)c6ccc(-c7nc8c9ccccc9c9ccccc9c8n7-c7ccc(C(C)(C)C)cc7)cc6)cc5)cc4)c4ccc(-c5nc6c7ccccc7c7ccccc7c6n5-c5ccc(C(C)(C)C)cc5)cc4)cc3)nc3c4ccccc4c4ccccc4c32)cc1`: the emission maximum (in ClCCl) amounted to 430 nm.

Where the note is “in CO”, `CC1(C)C(/C=C/C=C/C=C/C=C2/N(CCC(=O)O)c3ccc4ccccc4c3C2(C)C)=[N+](CCC(=O)O)c2ccc3ccccc3c21` had an emission maximum of 817 nm.

Compound `N#Cc1ccc(N)c(/C=C/C(F)(F)F)c1` displayed an emission maximum (in C1CCOC1) of 409 nm.

As for `Nc1cccc2ncccc12`, the emission maximum came out at 480 nm (in CC#N) and 534 nm (in O).

Turning to `C(=C\c1ccccn1)/c1ccc(N(c2ccc(/C=C/c3ccccn3)cc2)c2ccc(-c3nc4ccccc4nc3-c3ccc(N(c4ccc(/C=C/c5ccccn5)cc4)c4ccc(/C=C/c5ccccn5)cc4)cc3)cc2)cc1`, the emission maximum is 548 nm (in C1CCOC1) and 533 nm (in Cc1ccccc1).

Compound `CCC1(CC)c2cc(N(c3ccccc3)c3ccccc3)ccc2-c2c1c1c(c3c2C(CC)(CC)c2cc(N(c4ccccc4)c4ccccc4)ccc2-3)C(CC)(CC)c2cc(N(c3ccccc3)c3ccccc3)ccc2-1` displayed an emission maximum (in C1CCOC1) of 390 nm; an emission maximum (in CC#N) of 404 nm; an emission maximum (in CC(C)=O) of 395 nm; an emission maximum (in CCCCCC) of 382 nm; an emission maximum (in Cc1ccccc1) of 386 nm.

`c1ccc(C2CCN3COc4c5ccccc5c5c6c7c(c2c3c46)C(c2ccccc2)CCN7CO5)cc1` (stereo unspecified) came in with an emission maximum (in C1CCCCC1) of 535 nm; an emission maximum (in C1CCOC1) of 583 nm; an emission maximum (in C1COCCO1) of 577 nm; an emission maximum (in CC#N) of 610 nm; an emission maximum (in CC(C)=O) of 603 nm; an emission maximum (in CCOC(C)=O) of 584 nm. In addition, the emission maximum (in CCOCC) is recorded as 562 nm; the emission maximum (in CN(C)C=O) came out at 612 nm; the emission maximum (in CO) is given as 598 nm; the emission maximum (in CS(C)=O) is listed as 618 nm; the emission maximum (in Cc1ccccc1) is 565 nm; the emission maximum (in ClC(Cl)Cl) is 596 nm. Where the note is “in ClCCl”, this compound came in with an emission maximum of 600 nm.

In turn, `CN(C)c1ccc(N(C)C)cc1` registered an emission maximum (in C1CCCCC1) of 394.48 nm.

For `CC(C)[Si](C#Cc1ccc(C#C[Si](C(C)C)(C(C)C)C(C)C)c2nc3c(ccc4ccccc43)nc12)(C(C)C)C(C)C`, the emission maximum (in CCCCCC) came out at 444 nm.

On to `CCOC(=O)c1c(-c2c(Cl)c3ccccc3oc2=O)nn(-c2cccc(C)c2)c1C(=O)OCC`, for which the emission maximum (in ClCCl) is 410 nm.

The values are drawn from the Deep4Chem optical property database.
